The record followed here is patent US4657916A, “Quinoline-N-oxide derivative and pharmaceutical composition” (Kyowa Hakko Kogyo Co., Ltd., priority 1984, dated 1987).

Counter-ions that a name gives are not always drawn.

The target of this assay is T1, 5-lipoxygenase (Rattus norvegicus, UniProt P12527).
T1 construct: (RBL-1, ATCC NO. CRL 1378) cells of rats were used as a 5-lipoxygenase enzyme source; endogenous in cells; host or cells: RBL-1 (rat basophilic leukemia) cells, ATCC CRL 1378
T1 sequence (P12527 1-673): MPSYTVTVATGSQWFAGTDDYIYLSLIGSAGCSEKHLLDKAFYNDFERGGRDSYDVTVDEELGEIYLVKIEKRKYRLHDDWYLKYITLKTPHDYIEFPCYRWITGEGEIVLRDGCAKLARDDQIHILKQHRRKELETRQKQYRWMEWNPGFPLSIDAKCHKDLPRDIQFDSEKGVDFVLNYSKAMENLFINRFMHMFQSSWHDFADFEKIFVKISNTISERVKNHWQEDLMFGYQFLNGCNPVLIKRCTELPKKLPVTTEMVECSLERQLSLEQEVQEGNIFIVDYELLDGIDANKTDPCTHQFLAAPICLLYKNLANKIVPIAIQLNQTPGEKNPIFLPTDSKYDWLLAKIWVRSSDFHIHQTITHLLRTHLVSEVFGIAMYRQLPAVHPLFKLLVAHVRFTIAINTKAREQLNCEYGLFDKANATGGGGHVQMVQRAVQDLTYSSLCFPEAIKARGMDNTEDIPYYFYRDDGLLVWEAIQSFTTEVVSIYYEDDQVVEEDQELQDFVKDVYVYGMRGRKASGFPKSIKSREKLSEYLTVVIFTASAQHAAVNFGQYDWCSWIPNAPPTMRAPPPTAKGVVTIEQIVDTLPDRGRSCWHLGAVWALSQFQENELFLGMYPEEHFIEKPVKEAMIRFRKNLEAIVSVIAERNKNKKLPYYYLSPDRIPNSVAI
Kind of assay: Inhibiting action on leukocyte 5-lipoxygenase in vitro (RBL-1 cells as enzyme source, 14C-arachidonic acid). Type of assay: biochemical, rats. Particulars: RBL-1 rat cells, 37° C., 5 minutes; for inhibition at 1 µM: 1 μM compound, read-out: 5-lipoxygenase-inhibiting activity: Percent inhibition at 1 μM compound concentration. The procedure: Inhibiting actions of test compounds shown in Table 2 on lipoxygenase in vitro were determined according to the following procedure.
Procedure for determining inhibiting actions on leukocyte 5-lipoxygenase:
Determination was conducted according to the modified B. A. Jakschik et al procedure [Biochim. Biophys. Res. Commun. 95, 103 (1980)]. That is, Leukemic basophilic granulocyte (RBL-1, ATCC NO. CRL 1378) cells of rats were used as a 5-lipoxygenase enzyme source, and the cells and a test compound were contacted with each other in a 0.07 M tris hydrochloric acid buffer solution in the presence of 0.7 μm moles of calcium chloride at 37° C. for 5 minutes, and then 20 μmoles of [^14 C]-arachidonic acid was added thereto. The mixture was subjected to reaction at 37° C. for 5 minutes. The reaction product was extracted with ethyl acetate/methanol/0.2 M citric acid (30/4/1) and the extract was subjected to a thin layer chromatographic separation (developing solvent: petroleum ether/ethyl ether/acetic acid=50/50/1), and the spot of […] in the product was scraped off and ^14 C was measured by a liquid scintillation counter.

A word on the IC50: it is the concentration that inhibits the measured activity by half. A high value points to weaker potency. The compound `O=C(O)CCCCCCCCCCc1cc(O)c2ccccc2[n+]1[O-]` [Example 15, 4-hydroxy-2-(10-carboxydecyl) quinoline-Noxide] gave a half-maximal inhibitory concentration (IC50) of 2.7 µM.
For `[O-][n+]1c(CCCCCCCCCCCNCc2ccccc2)cc(OCc2ccccc2)c2ccccc21` [Example 10, 4-benzyloxy-2-[11-(N-benzylaminoundecyl)] quinoline-N-oxide], the inhibition at 1 µM turned out to be 32.4%.
Same read-out and setting: for `[O-][n+]1c(CCCCCCCCCCCOC2CCCCO2)cc(OCc2ccccc2)c2ccccc21` (stereo not shown) [Example 6, 4-benzyloxy-2-[11-(2-tetrahydropyranyloxy)undecyl] quinoline-N-oxide] the value was 20%.
In turn, `O=CCCCCCCCCCCc1cc(O)c2ccccc2[n+]1[O-]` [Example 20, 4-hydroxy-2-(10-formyldecyl) quinoline-Noxide] came in with an IC50 of 1.7 µM.
The same measure, in the same setting: for `COC(CCCCCCCCCCc1cc(O)c2ccccc2[n+]1[O-])OC` [Example 19, 4-hydroxy-2-(11,11-dimethoxyundecyl) quinoline-Noxide] the value was 0.18 µM; for `NCCCCCCCCCCCc1cc(O)c2ccccc2[n+]1[O-]` [Example 16, 4-hydroxy-2-(11-aminoundecyl) quinoline-Noxide. hydrochloride], 0.25 µM.
Turning to `NCCCCCCCCCCCc1cc(OCc2ccccc2)c2ccccc2[n+]1[O-]` [Example 9, 4-benzyloxy-2-(11-aminoundecyl) quinoline-N-oxide], the inhibition at 1 µM amounted to 27%.
With `[O-][n+]1c(CCCCCCCCCCCO)cc(O)c2ccccc21` [Example 3, 4-hydroxy-2-(11-hydroxyundecyl) quinoline-N-oxide], the IC50 came out at 0.28 µM.
Regarding `[O-][n+]1c(CCCO)cc(OCc2ccccc2)c2ccccc21` [Example 2, 4-benzyloxy-2-(3-hydroxypropyl) quinoline-N-oxide], the inhibition at 1 µM came to 2.7%.
As to `[O-][n+]1c(CCCCCCCCCCCNCc2ccccc2)cc(O)c2ccccc21` [Example 17, 4-hydroxy-2-[11-(N benzylaminoundecyl)] quinoline-Noxide], the midpoint of inhibition, the IC50, lay at 0.27 µM.
In the case of `COC(CCCCCCCCCCc1cc(OCc2ccccc2)c2ccccc2[n+]1[O-])OC` [Example 12, 4-benzyloxy-2-(11,11-dimethoxyundecyl) quinoline-N-oxide], the inhibition at 1 µM turned out to be 37.2%.
Same read-out and setting: for `[O-][n+]1c(CCCOC2CCCCO2)cc(OCc2ccccc2)c2ccccc21` (stereo not shown) [Example 13, 4-benzyloxy-2-[3-(2-tetrahydropyranyloxy)propyl]quinoline-Noxide] the value was 11.5%.
Consider `[O-][n+]1c(CCCCCCCCCCCOC2CCCCO2)cc(O)c2ccccc21` (stereo not shown) [Example 14, 4-hydroxy-2-[11-(2-tetrahydropyranyloxy)undecyl] quinoline-N-oxide], for which half-maximal inhibition (IC50) was put at 0.16 µM.
Consider `O=C(O)CCCCCCCCCCc1cc(OCc2ccccc2)c2ccccc2[n+]1[O-]` [Example 8, 4-benzyloxy-2-(10-carboxydecyl) quinoline-N-oxide], for which the inhibition at 1 µM was 27.3%.
Same read-out and setting: next, `[O-][n+]1c(CCCCCCCCCCC=NO)cc(OCc2ccccc2)c2ccccc21` [Example 11]: 36.6%; `[O-][n+]1c(CCCOC2CCCCO2)cc(O)c2ccccc21` (stereo not shown) [Example 4, 4-hydroxy-2-[3-(2-tetrahydropyranyloxy)propyl] quinoline-N-oxide]: 1.6%.
Compound `[O-][n+]1c(CCCCCCCCCCCO)c(Br)c(O)c2ccccc21` [Example 5, 3-bromo-4-hydroxy-2-(11-hydroxyundecyl) quinoline-N-oxide] came in with an IC50 of 0.22 µM.
Consider `[O-][n+]1c(CCCCCCCCCCCO)cc(OCc2ccccc2)c2ccccc21` [1-(2), 4-benzyloxy-2-(11-hydroxyundecyl) quinoline-N-oxide], for which the inhibition at 1 µM turned out to be 7.7%.
On the same count and under the same terms, for `O=CCCCCCCCCCCc1cc(OCc2ccccc2)c2ccccc2[n+]1[O-]` [Example 7, 4-benzyloxy-2-(10-formyldecyl) quinoline-N-oxide] the value was 33.1%.
